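Following 48 hours of exposure in 96-well plates, responses at five concentrations were used to interpolate endpoints linearly. At the GI50, growth is halved.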 Activity calls are given as the source filed them. Rule as the data show it: active = GI50 up to about 1.1 µM and inactive = higher. Square brackets hold non-standard residues; d marks the D form. Peptide text beside a SMILES is read from it. * marks the point of attachment. ξ: configuration not given here. ξW = NC(Cc1c[nH]c2ccccc12)C(=O)O; X29 = O=C(O)[C@H]1CCC[C@H]1N*; ξF = NC(Cc1ccccc1)C(=O)O; Boc = CC(C)(C)OC(=O)*; ξK = NCCCCC(N)C(=O)O; ξT = CC(O)C(N)C(=O)O; tBu = CC(C)(C)*
How the values were obtained:
Test in all cases: NCI anticancer screen, dose series, 48 h
SF-268 = tested on: SF-268
NCI-H226 = tested on: NCI-H226
HCT-116 = tested on: HCT-116
PC-3 = tested on: PC-3
SN12C = tested on: SN12C
A498 = tested on: A498
MDA-MB-435 = tested on: MDA-MB-435
HT-29 = tested on: HT-29
Hs-578T = tested on: Hs-578T
UACC-257 = tested on: UACC-257
SK-OV-3 = tested on: SK-OV-3
SK-MEL-5 = tested on: SK-MEL-5
ACHN = tested on: ACHN
T47D = tested on: T47D
OVCAR-5 = tested on: OVCAR-5
NCI-H460 = tested on: NCI-H460
MCF7 = tested on: MCF7
UACC-62 = tested on: UACC-62
CCRF-CEM = tested on: CCRF-CEM
RPMI-8226 = tested on: RPMI-8226

Measured: GI50

O=C(CC(C(=O)c1cccs1)c1ccsc1)c1cccs1 (stereo not given)
inactive: SF-268 > 100 µM | NCI-H226 > 100 µM | HCT-116 29.9 µM | PC-3 45.2 µM | SN12C > 100 µM | A498 38.6 µM | MDA-MB-435 29.1 µM | HT-29 > 100 µM | Hs-578T > 100 µM | UACC-257 > 100 µM | SK-OV-3 61.9 µM | SK-MEL-5 47.3 µM | ACHN > 100 µM | T47D 26.3 µM | OVCAR-5 > 100 µM | NCI-H460 43.9 µM | MCF7 52.2 µM | UACC-62 62.1 µM | CCRF-CEM 37.8 µM

Cc1cc(C)c2c(c1)CC1(Cc3cc(C)c(C)cc3C1=O)C2=O (stereo not given)
inactive: SF-268 > 100 µM | NCI-H226 > 100 µM | PC-3 > 100 µM | SN12C > 100 µM | A498 > 100 µM | MDA-MB-435 3.82 µM | Hs-578T 56.6 µM | UACC-257 > 100 µM | SK-MEL-5 > 100 µM | ACHN > 100 µM | T47D > 100 µM | OVCAR-5 48.1 µM | NCI-H460 > 100 µM | RPMI-8226 > 100 µM | MCF7 > 100 µM | UACC-62 > 100 µM | CCRF-CEM > 100 µM

COc1ccc(CC(=O)N2CCC3(C)CC(=O)CC=C23)cc1OC (stereo not given)
inactive: SF-268 > 100 µM | NCI-H226 > 100 µM | HCT-116 > 100 µM | PC-3 > 100 µM | SN12C > 100 µM | A498 > 100 µM | MDA-MB-435 > 100 µM | HT-29 > 100 µM | Hs-578T > 100 µM | SK-OV-3 > 100 µM | SK-MEL-5 > 100 µM | ACHN > 100 µM | T47D > 100 µM | OVCAR-5 > 100 µM | RPMI-8226 > 100 µM | MCF7 > 100 µM | UACC-62 > 100 µM

C=C1CC[C@H](O)C(C)(C)[C@@H]1CC/C(C)=C/CC/C=C(\C)CC/C=C(\C)CCC=C(C)C
inactive: SF-268 > 100 µM | NCI-H226 69.2 µM | HCT-116 43.7 µM | PC-3 > 100 µM | SN12C 66.2 µM | A498 > 100 µM | MDA-MB-435 > 100 µM | HT-29 > 100 µM | Hs-578T > 100 µM | UACC-257 > 100 µM | SK-OV-3 > 100 µM | SK-MEL-5 54 µM | ACHN > 100 µM | T47D 18.7 µM | OVCAR-5 > 100 µM | NCI-H460 > 100 µM | MCF7 27.6 µM | UACC-62 > 100 µM | CCRF-CEM 1.82 µM

Fc1c(F)c(C(F)(F)F)c(F)c(F)c1N/N=C/c1cn(Cc2ccccc2)c2ccccc12
inactive: SF-268 43.2 µM | HCT-116 23.1 µM | PC-3 27.4 µM | SN12C 29.2 µM | A498 27.9 µM | MDA-MB-435 22.1 µM | HT-29 18.2 µM | Hs-578T 41.7 µM | UACC-257 21.5 µM | SK-OV-3 12.2 µM | SK-MEL-5 18.2 µM | ACHN 26.7 µM | T47D 23.6 µM | OVCAR-5 19.2 µM | NCI-H460 12.1 µM | RPMI-8226 25.9 µM | MCF7 23.1 µM | UACC-62 22.4 µM | CCRF-CEM 20.1 µM

CC(C)(C)C(=O)C(C(=O)C(C)(C)C)C(=O)C(C)(C)C
inactive: SF-268 > 100 µM | NCI-H226 > 100 µM | HCT-116 > 100 µM | PC-3 > 100 µM | SN12C > 100 µM | A498 > 100 µM | MDA-MB-435 > 100 µM | HT-29 > 100 µM | Hs-578T > 100 µM | UACC-257 > 100 µM | SK-OV-3 43.5 µM | SK-MEL-5 > 100 µM | ACHN > 100 µM | T47D > 100 µM | OVCAR-5 > 100 µM | NCI-H460 > 100 µM | RPMI-8226 > 100 µM | MCF7 > 100 µM | CCRF-CEM > 100 µM

O=C(CSCC(=O)N/N=C/c1cccc(O)c1)N/N=C/c1cccc(O)c1
inactive: SF-268 > 100 µM | NCI-H226 82.4 µM | HCT-116 > 100 µM | PC-3 > 100 µM | SN12C > 100 µM | A498 > 100 µM | MDA-MB-435 > 100 µM | HT-29 > 100 µM | Hs-578T > 100 µM | UACC-257 > 100 µM | SK-OV-3 > 100 µM | SK-MEL-5 > 100 µM | ACHN > 100 µM | T47D > 100 µM | OVCAR-5 > 100 µM | NCI-H460 > 100 µM | RPMI-8226 > 100 µM | MCF7 > 100 µM | UACC-62 > 100 µM

O=c1oc2cccnc2n1CCCCN1CCN(c2ccccc2)CC1
inactive: SF-268 > 100 µM | HCT-116 > 100 µM | PC-3 > 100 µM | A498 > 100 µM | MDA-MB-435 > 100 µM | HT-29 > 100 µM | Hs-578T > 100 µM | UACC-257 > 100 µM | SK-OV-3 > 100 µM | SK-MEL-5 > 100 µM | ACHN > 100 µM | T47D > 100 µM | OVCAR-5 > 100 µM | NCI-H460 > 100 µM | RPMI-8226 > 100 µM | MCF7 > 100 µM | CCRF-CEM > 100 µM

C=[N+](CNC(=O)CNC(=O)C(Cc1ccc([N+](=O)[O-])cc1)NC(=O)OC(C)(C)C)C(=O)CNC(=O)C(Cc1ccc([N+](=O)[O-])cc1)NC(=O)OC(C)(C)C (stereo not given)
inactive: SF-268 27.8 µM | NCI-H226 60.7 µM | HCT-116 36.2 µM | PC-3 29.8 µM | SN12C 47.9 µM | A498 30.7 µM | MDA-MB-435 26.2 µM | HT-29 49.1 µM | Hs-578T 26.1 µM | SK-OV-3 > 100 µM | SK-MEL-5 35.6 µM | ACHN > 100 µM | T47D > 10 µM | OVCAR-5 > 100 µM | NCI-H460 > 100 µM | RPMI-8226 16.9 µM | MCF7 40.8 µM | UACC-62 21.6 µM

CC12CCC(CC1(Cl)Cl)C2 (stereo not given)
inactive: SF-268 > 100 µM | NCI-H226 > 100 µM | PC-3 > 100 µM | SN12C > 100 µM | MDA-MB-435 > 100 µM | HT-29 > 100 µM | Hs-578T > 100 µM | UACC-257 > 100 µM | SK-OV-3 > 100 µM | SK-MEL-5 > 100 µM | ACHN > 100 µM | T47D > 100 µM | OVCAR-5 > 100 µM | NCI-H460 > 100 µM | RPMI-8226 > 100 µM | MCF7 > 100 µM | UACC-62 > 100 µM | CCRF-CEM > 100 µM

CC(C)=CCN1CC(C)C(=O)Nc2cc(Cl)ccc21 (stereo not given)
inactive: SF-268 35.2 µM | NCI-H226 15.7 µM | HCT-116 16.2 µM | PC-3 18.6 µM | SN12C 15.9 µM | A498 33.3 µM | MDA-MB-435 23.4 µM | HT-29 19.2 µM | Hs-578T 36.5 µM | UACC-257 13.3 µM | SK-OV-3 24.8 µM | SK-MEL-5 13.6 µM | ACHN 25 µM | T47D 24.9 µM | OVCAR-5 34 µM | NCI-H460 20.5 µM | RPMI-8226 28.8 µM | MCF7 18.7 µM | CCRF-CEM 29.4 µM

CN/C(=N\n1cnnc1)OC
inactive: HCT-116 > 100 µM | PC-3 > 100 µM | A498 > 100 µM | MDA-MB-435 > 100 µM | HT-29 > 100 µM | Hs-578T > 100 µM | UACC-257 > 100 µM | SK-OV-3 > 100 µM | SK-MEL-5 > 100 µM | ACHN > 100 µM | T47D > 100 µM | OVCAR-5 > 100 µM | NCI-H460 > 100 µM | RPMI-8226 > 100 µM | MCF7 > 100 µM | UACC-62 > 100 µM | CCRF-CEM > 100 µM

Cc1ccc(Nc2nc(O)c3[nH]cnc3n2)cc1CO
inactive: SF-268 20.7 µM | NCI-H226 17.1 µM | HCT-116 12.1 µM | PC-3 12.8 µM | MDA-MB-435 15.8 µM | HT-29 8.87 µM | Hs-578T 21.2 µM | UACC-257 17.3 µM | SK-OV-3 13.5 µM | SK-MEL-5 16.5 µM | ACHN 16 µM | T47D 14 µM | OVCAR-5 18.9 µM | NCI-H460 16.5 µM | RPMI-8226 10.7 µM | MCF7 16.6 µM | UACC-62 13 µM | CCRF-CEM 16.1 µM

CC(OC(C)(C)C)C(NC(=O)C(CCCCNC(=O)OC(C)(C)C)NC(=O)C(Cc1c[nH]c2ccccc12)NC(=O)C(N)Cc1ccccc1)C(=O)NC(Cc1ccccc1)C(=O)N[C@@H]1CCC[C@@H]1C(=O)O (stereo not given in full) (H-[ξF][ξW][ξK](Boc)[ξT](tBu)[ξF]-X29)
inactive: SF-268 44.8 µM | NCI-H226 28.5 µM | HCT-116 39.5 µM | PC-3 45.6 µM | SN12C 28.2 µM | MDA-MB-435 37.2 µM | HT-29 29.6 µM | Hs-578T 19.9 µM | UACC-257 > 100 µM | SK-OV-3 38.8 µM | SK-MEL-5 11.1 µM | ACHN > 100 µM | T47D 33.8 µM | OVCAR-5 23.2 µM | NCI-H460 > 100 µM | RPMI-8226 35.2 µM | MCF7 27 µM | UACC-62 33.4 µM | CCRF-CEM 36.2 µM

From ChEMBL document CHEMBL1201862, “PubChem BioAssay data set” (2004)
